Experimental data reported in patent US12303505B2, “Tumor-treating pharmaceutical composition” (Eisai R&D Management Co., Ltd., priority 2017, dated 2025).
Structures can show the parent of a compound that is named as a salt.

Columns and labels:
Assay type in all cases: in vivo
[1] = system: Human breast cancer MDA-MB-231 cells; test: Antitumor effect in human breast cancer MDA-MB-231 transplantation model, nude mice
Procedure: Human breast cancer MDA-MB-231 cells (ATCC) were cultured by using RPMI1640 medium (Sigma-Aldrich Co. LLC) containing 10% FBS in a 5% CO2 incubator under conditions of 37° C. When the cells became an approximately 80% confluent state, the cells were recovered by using trypsin-EDTA. A suspension was prepared by adding Hank's balanced salt solution containing 50% Matrigel to the cells so as to be 10.0×10^7 cells/mL. 0.1 mL of the obtained cell suspension was subcutaneously transplanted to the sides of the bodies of five nude mice (CAnN.Cg-Foxn1^nu/CrlCrlj, Charles River Laboratories Japan, Inc.) each of a control group, an E7386 25 mg/kg alone administration group, a lenvatinib mesylate 10 mg/kg alone administration group, and a combined administration group of 25 mg/kg E7386 and 10 mg/kg lenvatinib mesylate. From 6 days after the transplantation, E7386 (25 mg/kg, b.d.s., 10 days, oral administration) and lenvatinib mesylate (10 mg/kg, q.d., 10 days, oral administration) were administered alone or in combination to the alone administration group or the combined administration group. For the administration, E7386 was dissolved in 0.1 mol/L hydrochloric acid, and lenvatinib mesylate was dissolved in 3 mmol/L hydrochloric acid. Any drug was not administered to the control group.
When the start day of administration was defined as day 1, the major axis and minor axis of tumor developed in each mouse were then measured at day 4, day 7, and day 10 by using Digimatic Caliper (Mitutoyo Corp.).
(§1) The tumor volume and the relative tumor volume (RTV) were calculated according to the following expressions. Tumor volume (mm^3)=Tumor major axis (mm)×Tumor minor axis^2 (mm^2)/2 Relative tumor volume (RTV)=Tumor volume at the measurement day/Tumor volume at the start day of administration

[2] = system: human melanoma cell line SEKI; test: Antitumor effect in human melanoma cell line SEKI transplantation model, nude mice
Procedure: A human melanoma cell line SEKI (JCRB Cell Bank) was cultured by using RPMI1640 medium (Sigma-Aldrich Co. LLC) containing 10% FBS in a 5% CO2 incubator under conditions of 37° C. When the cells became an approximately 80% confluent state, the cells were recovered by using trypsin-EDTA. A suspension was prepared by adding Hank's balanced salt solution containing 50% Matrigel to the cells so as to be 5.0×10^7 cells/mL. 0.1 mL of the obtained cell suspension was subcutaneously transplanted to the sides of the bodies of six nude mice (CAnN.Cg-Foxn1^nu/CrlCrlj, Charles River Laboratories Japan, Inc.) each of a control group, an E7386 12.5 or 25 mg/kg alone administration group, a lenvatinib mesylate 10 mg/kg alone administration group, and a combined administration group of 12.5 or 25 mg/kg E7386 and 10 mg/kg lenvatinib mesylate. From 13 days after the transplantation, E7386 (12.5 or 25 mg/kg, b.d.s., 14 days, oral administration) and lenvatinib mesylate (10 mg/kg, q.d., 14 days, oral administration) were administered alone or in combination to the alone administration group or the combined administration group. For the administration, E7386 was dissolved in 0.1 mol/L hydrochloric acid, and lenvatinib mesylate was dissolved in 3 mmol/L hydrochloric acid. 0.1 mol/L hydrochloric acid (b.d.s., 14 days) was administered to the control group.
When the start day of administration was defined as day 1, the major axis and minor axis of tumor developed in each mouse were then measured at day 4, day 8, day 11, and day 15 by using Digimatic Caliper (Mitutoyo Corp.).
as §1

[3] = system: Human renal cell carcinoma line A-498 cells; test: Antitumor effect in human renal cell carcinoma line A-498 subcutaneous transplantation model, nude mice
Procedure: Human renal cell carcinoma line A-498 cells (ATCC) were cultured by using RPMI1640 medium (Wako Pure Chemical Industries, Ltd.) containing 10% FBS in a 5% COz incubator under conditions of 37° C. When the cells became an approximately 100% confluent state, the cells were recovered by using trypsin-EDTA. A suspension was prepared by adding RPMI1640 medium containing 50% Matrigel to the cells so as to be 5.0×10^7 cells/mL. 0.1 mL of the obtained cell suspension was subcutaneously transplanted to the sides of the bodies of six nude mice (CAnN.Cg-Foxn1^nu/CrlCrlj, Charles River Laboratories Japan, Inc.) each of a control group, an E7386 50 mg/kg alone administration group, a lenvatinib mesylate 10 mg/kg alone administration group, and a combined administration group of 50 mg/kg E7386 and 10 mg/kg lenvatinib mesylate. From 27 days alter the transplantation, E7386 (50 mg/kg, q.d., 14 days, oral administration) and lenvatinib mesylate (10 mg/kg, q.d, 14 days, oral administration) were administered alone or in combination to the alone administration group or the combined administration group. For the administration, E7386 was dissolved in 0.1 mol/L hydrochloric acid, and lenvatinib mesylate was dissolved in 3 mmol/L hydrochloric acid. Any drug was not administered to the control group.
When the start day of administration was defined as day 1, the major axis and minor axis of tumor developed in each mouse were then measured at day 5, day 8, day 12, and day 15 by using Digimatic Caliper (Mitutoyo Corp.).
as §1

[4] = Day 4, E7386 25 mg/kg b.d.s. oral alone
[5] = Day 4, lenvatinib mesylate 10 mg/kg q.d. oral alone
[6] = Day 8, lenvatinib mesylate 10 mg/kg q.d. oral alone
[7] = Day 15, lenvatinib mesylate 10 mg/kg q.d. oral alone

Q: For `C=CCN1CC(=O)N2[C@@H](Cc3ccc(O)cc3F)C(=O)N(Cc3cccc(N4CC(N5CCN(CC)CC5)C4)n3)C[C@@H]2N1C(=O)NCc1ccccc1` [E7386, (6S,9aS)—N-Benzyl-8-({6-[3-(4-ethylpiperazin-1-yl)azetidin-1-yl]pyridin-2-yl}methyl)-6-(2-fluoro-4-hydroxybenzyl)-4,7-dioxo-2-(prop-2-en-1-yl)hexahydro-2H-pyrazino[2,1-c][1,2,4]triazine-1(6H)-carboxamide], which “Relative tumor volume (RTV), mean±SD” value [1, 4] is on record?
A: 2.34 ± 0.11

Q: What about the “Relative tumor volume (RTV), mean±SD” value ([1]; Day 7, E7386 25 mg/kg b.d.s. oral alone) of the same compound?
A: 3.19 ± 0.38

Q: And the “Relative tumor volume (RTV), mean±SD” value ([1]; Day 10, E7386 25 mg/kg b.d.s. oral alone)?
A: 4.49 ± 0.51

Q: And the “Relative tumor volume (RTV), mean±SD” value ([2]; Day 4, E7386 12.5 mg/kg b.d.s. oral alone)?
A: 1.65 ± 0.22

Q: What about the “Relative tumor volume (RTV), mean±SD” value [2, 4] of the same compound?
A: 1.56 ± 0.21

Q: What about the “Relative tumor volume (RTV), mean±SD” value ([2]; Day 8, E7386 12.5 mg/kg b.d.s. oral alone) of the same compound?
A: 3.02 ± 0.31

Q: What about the “Relative tumor volume (RTV), mean±SD” value ([2]; Day 8, E7386 25 mg/kg b.d.s. oral alone) of the same compound?
A: 2.94 ± 0.22

Q: What about the “Relative tumor volume (RTV), mean±SD” value ([2]; Day 11, E7386 12.5 mg/kg b.d.s. oral alone) of the same compound?
A: 4.19 ± 0.80

Q: What about the “Relative tumor volume (RTV), mean±SD” value ([2]; Day 11, E7386 25 mg/kg b.d.s. oral alone) of the same compound?
A: 4.35 ± 0.36

Q: What about the “Relative tumor volume (RTV), mean±SD” value ([2]; Day 15, E7386 12.5 mg/kg b.d.s. oral alone) of the same compound?
A: 5.53 ± 1.21

Q: And the “Relative tumor volume (RTV), mean±SD” value ([2]; Day 15, E7386 25 mg/kg b.d.s. oral alone)?
A: 5.90 ± 1.34

Q: What about the “Relative tumor volume (RTV), mean±SD” value ([3]; Day 5, E7386 50 mg/kg q.d. oral alone) of the same compound?
A: 1.33 ± 0.24

Q: And the “Relative tumor volume (RTV), mean±SD” value ([3]; Day 8, E7386 50 mg/kg q.d. oral alone)?
A: 1.70 ± 0.26

Q: And the “Relative tumor volume (RTV), mean±SD” value ([3]; Day 12, E7386 50 mg/kg q.d. oral alone)?
A: 2.04 ± 0.29

Q: What about the “Relative tumor volume (RTV), mean±SD” value ([3]; Day 15, E7386 50 mg/kg q.d. oral alone) of the same compound?
A: 2.29 ± 0.33

Q: What does the source list for `COc1cc2nccc(Oc3ccc(NC(=O)NC4CC4)c(Cl)c3)c2cc1C(N)=O` [Lenvatinib mesylate, 4-(3-chloro-4-(cyclopropylaminocarbonyl)aminophenoxy)-7-methoxy-6-quinolinecarboxamide, reference compound]?
A: Relative tumor volume (RTV), mean±SD [1, 5]: 2.01 ± 0.60; Relative tumor volume (RTV), mean±SD ([1]; Day 7, lenvatinib mesylate 10 mg/kg q.d. oral alone): 2.41 ± 0.60; Relative tumor volume (RTV), mean±SD ([1]; Day 10, lenvatinib mesylate 10 mg/kg q.d. oral alone): 2.67 ± 1.23; Relative tumor volume (RTV), mean±SD [2, 5]: 1.60 ± 0.22; Relative tumor volume (RTV), mean±SD [2, 6]: 2.66 ± 0.46; Relative tumor volume (RTV), mean±SD ([2]; Day 11, lenvatinib mesylate 10 mg/kg q.d. oral alone): 3.81 ± 0.80; Relative tumor volume (RTV), mean±SD [2, 7]: 4.67 ± 1.19; Relative tumor volume (RTV), mean±SD ([3]; Day 5, lenvatinib mesylate 10 mg/kg q.d. oral alone): 1.08 ± 0.18; Relative tumor volume (RTV), mean±SD [3, 6]: 1.35 ± 0.25; Relative tumor volume (RTV), mean±SD ([3]; Day 12, lenvatinib mesylate 10 mg/kg q.d. oral alone): 1.21 ± 0.18; Relative tumor volume (RTV), mean±SD [3, 7]: 1.20 ± 0.21
